Experimental data as given in article PMC8776063, “Aurora Kinase A Is Involved in Controlling the Localization of Aquaporin-2 in Renal Principal Cells” (International Journal of Molecular Sciences, 2022).
pIC50: −log10 of the molar value. Like-named read-outs stand apart in the source and are kept apart here.

How the values were obtained:
[1] = biological target: T1, PAK4 (Homo sapiens, UniProt O96013); experiment: Thermal shift assay; assay type: binding; details: read-out: ΔTm PAK4
T1 construct: purchased in-house thermal shift (DSF) kinase panel (SGC Frankfurt); Promega NanoBRET for AURKA/B/C
T1 sequence (O96013 291-591): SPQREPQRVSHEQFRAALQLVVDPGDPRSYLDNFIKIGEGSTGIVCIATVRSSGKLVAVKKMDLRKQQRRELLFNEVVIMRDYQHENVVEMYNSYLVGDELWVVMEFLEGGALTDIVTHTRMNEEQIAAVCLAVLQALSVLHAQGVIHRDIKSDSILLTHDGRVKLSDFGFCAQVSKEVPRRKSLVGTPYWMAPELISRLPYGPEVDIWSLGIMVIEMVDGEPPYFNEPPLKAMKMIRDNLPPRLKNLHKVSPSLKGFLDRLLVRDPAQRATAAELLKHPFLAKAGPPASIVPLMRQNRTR

[2] = biological target: T2, GSK3B (Homo sapiens, UniProt P49841); experiment: Thermal shift assay; assay type: binding; details: read-out: ΔTm GSK3B
T2 construct: purchased in-house thermal shift (DSF) kinase panel (SGC Frankfurt); Promega NanoBRET for AURKA/B/C
T2 sequence (P49841 35-386): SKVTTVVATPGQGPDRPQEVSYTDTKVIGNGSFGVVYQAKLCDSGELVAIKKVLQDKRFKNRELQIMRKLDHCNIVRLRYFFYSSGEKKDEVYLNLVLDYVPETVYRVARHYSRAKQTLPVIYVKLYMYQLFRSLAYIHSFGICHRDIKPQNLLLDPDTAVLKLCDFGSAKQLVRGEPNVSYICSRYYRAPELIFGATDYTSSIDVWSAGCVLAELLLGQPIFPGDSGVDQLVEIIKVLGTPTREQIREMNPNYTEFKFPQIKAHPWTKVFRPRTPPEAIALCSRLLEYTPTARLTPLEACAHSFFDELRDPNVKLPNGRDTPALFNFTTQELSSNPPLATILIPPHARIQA

[3] = biological target: T3, CAMK1G (Homo sapiens, UniProt Q96NX5); experiment: Thermal shift assay; assay type: binding; details: read-out: ΔTm CAMK1G
T3 construct: purchased in-house thermal shift (DSF) kinase panel (SGC Frankfurt); Promega NanoBRET for AURKA/B/C
T3 sequence (Q96NX5 23-277): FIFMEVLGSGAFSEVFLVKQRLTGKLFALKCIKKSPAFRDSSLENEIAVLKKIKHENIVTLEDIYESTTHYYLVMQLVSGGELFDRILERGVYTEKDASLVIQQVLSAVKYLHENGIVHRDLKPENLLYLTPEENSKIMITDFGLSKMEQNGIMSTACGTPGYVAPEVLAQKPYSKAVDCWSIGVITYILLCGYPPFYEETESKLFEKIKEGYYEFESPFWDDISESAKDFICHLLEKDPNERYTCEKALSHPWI

[4] = biological target: AURKB (Homo sapiens, UniProt Q96GD4); experiment: NanoBRET assay in HEK293T cells; assay type: cell-based; set-up: full-length wild-type AURKA, AURKB, and AURKC were obtained as plasmids cloned in frame with a C-terminal NanoLuc-fusion; host or cells: HEK293T
AURKB, sequence (Q96GD4 whole entry, the tested form may be a part): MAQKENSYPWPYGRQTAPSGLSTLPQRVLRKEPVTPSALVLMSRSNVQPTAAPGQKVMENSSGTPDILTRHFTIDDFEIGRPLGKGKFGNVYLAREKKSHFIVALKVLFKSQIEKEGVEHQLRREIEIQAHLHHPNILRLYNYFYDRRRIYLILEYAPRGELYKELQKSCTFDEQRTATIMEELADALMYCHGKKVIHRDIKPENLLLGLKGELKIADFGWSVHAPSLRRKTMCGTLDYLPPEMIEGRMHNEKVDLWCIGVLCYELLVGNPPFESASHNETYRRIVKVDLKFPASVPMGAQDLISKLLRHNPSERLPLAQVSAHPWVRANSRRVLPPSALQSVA

[5] = biological target: T4, EPHA2 (Homo sapiens, UniProt P29317); experiment: Thermal shift assay; assay type: binding; details: read-out: ΔTm EPHA2
T4 construct: purchased in-house thermal shift (DSF) kinase panel (SGC Frankfurt); Promega NanoBRET for AURKA/B/C
T4 sequence (P29317 596-900): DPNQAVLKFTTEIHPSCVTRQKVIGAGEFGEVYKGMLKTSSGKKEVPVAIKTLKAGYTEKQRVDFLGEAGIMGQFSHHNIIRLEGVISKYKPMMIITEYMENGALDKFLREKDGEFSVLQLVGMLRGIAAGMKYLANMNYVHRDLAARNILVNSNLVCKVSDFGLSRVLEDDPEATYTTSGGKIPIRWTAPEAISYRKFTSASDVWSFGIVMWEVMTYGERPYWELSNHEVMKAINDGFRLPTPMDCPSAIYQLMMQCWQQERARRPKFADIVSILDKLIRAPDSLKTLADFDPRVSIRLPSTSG

[6] = biological target: T5, MAPK8 (Homo sapiens, UniProt P45983); experiment: Thermal shift assay; assay type: binding; details: read-out: ΔTm MAPK8
T5 construct: purchased in-house thermal shift (DSF) kinase panel (SGC Frankfurt); Promega NanoBRET for AURKA/B/C
T5 sequence (P45983 1-364): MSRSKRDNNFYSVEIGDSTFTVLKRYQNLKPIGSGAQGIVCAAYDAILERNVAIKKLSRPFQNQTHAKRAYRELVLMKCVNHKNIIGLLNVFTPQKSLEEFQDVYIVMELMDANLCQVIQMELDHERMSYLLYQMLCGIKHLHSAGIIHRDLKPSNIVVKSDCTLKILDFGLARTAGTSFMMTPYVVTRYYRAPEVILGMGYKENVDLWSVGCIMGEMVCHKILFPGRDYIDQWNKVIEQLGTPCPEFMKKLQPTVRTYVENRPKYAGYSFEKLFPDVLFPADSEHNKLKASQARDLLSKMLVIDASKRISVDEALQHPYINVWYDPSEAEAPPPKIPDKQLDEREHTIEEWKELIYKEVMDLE

[7] = biological target: T6, AURKA (Homo sapiens, UniProt O14965); experiment: NanoBRET assay in HEK293T cells; assay type: cell-based
T6 construct: full-length wild-type AURKA, AURKB, and AURKC were obtained as plasmids cloned in frame with a C-terminal NanoLuc-fusion; host or cells: HEK293T
T6 sequence (O14965 1-403): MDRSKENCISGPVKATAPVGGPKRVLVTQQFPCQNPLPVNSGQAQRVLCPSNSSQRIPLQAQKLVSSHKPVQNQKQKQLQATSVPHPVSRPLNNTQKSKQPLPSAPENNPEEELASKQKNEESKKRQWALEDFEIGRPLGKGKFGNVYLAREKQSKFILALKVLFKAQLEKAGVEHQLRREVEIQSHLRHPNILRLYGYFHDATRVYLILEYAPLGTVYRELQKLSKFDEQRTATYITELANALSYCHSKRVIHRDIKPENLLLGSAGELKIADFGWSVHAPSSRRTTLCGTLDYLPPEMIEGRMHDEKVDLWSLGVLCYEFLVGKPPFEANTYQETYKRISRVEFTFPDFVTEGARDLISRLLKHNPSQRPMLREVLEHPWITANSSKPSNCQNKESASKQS

[8] = biological target: T7, PHKG2 (Homo sapiens, UniProt P15735); experiment: Thermal shift assay; assay type: binding; details: read-out: ΔTm PHKG2
T7 construct: purchased in-house thermal shift (DSF) kinase panel (SGC Frankfurt); Promega NanoBRET for AURKA/B/C
T7 sequence (P15735 6-293): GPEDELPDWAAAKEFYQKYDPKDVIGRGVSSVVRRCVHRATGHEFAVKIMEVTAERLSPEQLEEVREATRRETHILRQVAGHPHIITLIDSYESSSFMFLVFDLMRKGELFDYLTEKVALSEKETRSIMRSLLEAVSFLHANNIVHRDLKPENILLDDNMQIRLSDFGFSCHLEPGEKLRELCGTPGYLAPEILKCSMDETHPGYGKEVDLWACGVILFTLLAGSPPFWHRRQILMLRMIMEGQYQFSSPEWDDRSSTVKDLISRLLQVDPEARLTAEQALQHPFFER

[9] = biological target: T8, CDK2 (Homo sapiens, UniProt P24941); experiment: Thermal shift assay; assay type: binding; details: read-out: ΔTm CDK2
T8 construct: purchased in-house thermal shift (DSF) kinase panel (SGC Frankfurt); Promega NanoBRET for AURKA/B/C

[10] = biological target: T9, GRK5 (Homo sapiens, UniProt P34947); experiment: Thermal shift assay; assay type: binding; details: read-out: ΔTm GRK5
T9 construct: purchased in-house thermal shift (DSF) kinase panel (SGC Frankfurt); Promega NanoBRET for AURKA/B/C
T9 sequence (P34947 186-514): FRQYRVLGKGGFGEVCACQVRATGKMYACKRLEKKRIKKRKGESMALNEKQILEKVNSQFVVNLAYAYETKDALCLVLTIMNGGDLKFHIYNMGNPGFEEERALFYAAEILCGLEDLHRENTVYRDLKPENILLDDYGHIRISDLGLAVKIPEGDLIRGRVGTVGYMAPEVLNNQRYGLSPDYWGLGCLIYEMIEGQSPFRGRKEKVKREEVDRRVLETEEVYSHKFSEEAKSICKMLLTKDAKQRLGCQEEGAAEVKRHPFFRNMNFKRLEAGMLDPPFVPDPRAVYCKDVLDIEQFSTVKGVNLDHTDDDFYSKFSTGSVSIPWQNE

[11] = biological target: T10, DAPK3 (Homo sapiens, UniProt O43293); experiment: Thermal shift assay; assay type: binding; details: read-out: ΔTm DAPK3
T10 construct: purchased in-house thermal shift (DSF) kinase panel (SGC Frankfurt); Promega NanoBRET for AURKA/B/C
T10 sequence (O43293 9-289): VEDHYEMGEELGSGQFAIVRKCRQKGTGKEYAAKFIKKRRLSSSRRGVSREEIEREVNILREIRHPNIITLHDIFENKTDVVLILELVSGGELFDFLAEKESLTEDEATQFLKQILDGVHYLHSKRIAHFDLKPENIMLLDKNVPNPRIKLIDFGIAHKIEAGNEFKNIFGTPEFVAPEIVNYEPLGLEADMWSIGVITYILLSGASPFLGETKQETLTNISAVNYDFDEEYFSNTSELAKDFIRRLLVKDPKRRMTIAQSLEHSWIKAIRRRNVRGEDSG

[12] = biological target: T11, MERTK (Homo sapiens, UniProt Q12866); experiment: Thermal shift assay; assay type: binding; details: read-out: ΔTm MERTK
T11 construct: purchased in-house thermal shift (DSF) kinase panel (SGC Frankfurt); Promega NanoBRET for AURKA/B/C
T11 sequence (Q12866 570-864): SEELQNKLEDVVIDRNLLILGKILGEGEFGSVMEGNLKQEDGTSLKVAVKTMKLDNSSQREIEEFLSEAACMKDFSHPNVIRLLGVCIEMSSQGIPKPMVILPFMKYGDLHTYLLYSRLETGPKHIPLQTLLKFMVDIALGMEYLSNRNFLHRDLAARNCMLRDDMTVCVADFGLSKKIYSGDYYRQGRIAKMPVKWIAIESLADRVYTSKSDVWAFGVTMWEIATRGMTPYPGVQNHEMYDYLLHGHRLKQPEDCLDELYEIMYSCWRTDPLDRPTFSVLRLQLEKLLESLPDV

[13] = biological target: T12, AKT3 (Homo sapiens, UniProt Q9Y243); experiment: Thermal shift assay; assay type: binding; details: read-out: ΔTm AKT3
T12 construct: purchased in-house thermal shift (DSF) kinase panel (SGC Frankfurt); Promega NanoBRET for AURKA/B/C
T12 sequence (Q9Y243 148-479): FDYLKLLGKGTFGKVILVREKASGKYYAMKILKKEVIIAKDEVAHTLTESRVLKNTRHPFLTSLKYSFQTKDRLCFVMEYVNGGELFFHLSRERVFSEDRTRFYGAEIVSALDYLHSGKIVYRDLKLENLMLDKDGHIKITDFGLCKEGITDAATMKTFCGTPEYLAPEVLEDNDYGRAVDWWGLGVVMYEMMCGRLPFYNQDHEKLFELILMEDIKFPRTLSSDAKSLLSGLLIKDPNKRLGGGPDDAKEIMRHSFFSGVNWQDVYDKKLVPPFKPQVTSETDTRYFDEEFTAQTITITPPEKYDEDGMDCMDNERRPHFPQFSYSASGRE

[14] = biological target: T13, CSNK2A1 (Homo sapiens, UniProt P68400); experiment: Thermal shift assay; assay type: binding; details: read-out: ΔTm CSNK2A1
T13 construct: purchased in-house thermal shift (DSF) kinase panel (SGC Frankfurt); Promega NanoBRET for AURKA/B/C
T13 sequence (P68400 1-337): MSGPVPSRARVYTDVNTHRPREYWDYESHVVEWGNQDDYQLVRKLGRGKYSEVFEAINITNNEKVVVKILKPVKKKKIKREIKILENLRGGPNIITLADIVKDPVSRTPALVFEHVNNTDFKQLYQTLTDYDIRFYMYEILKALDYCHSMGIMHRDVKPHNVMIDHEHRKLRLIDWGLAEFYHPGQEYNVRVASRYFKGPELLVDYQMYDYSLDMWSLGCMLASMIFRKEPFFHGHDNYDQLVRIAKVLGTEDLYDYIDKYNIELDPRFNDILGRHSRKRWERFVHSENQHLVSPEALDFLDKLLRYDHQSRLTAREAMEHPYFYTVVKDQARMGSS

[15] = NanoBRET, HEK293T cells overexpressing the kinase, Table 2, read-out: AURKB IC50
[16] = NanoBRET, n = 2, mean, Figure 6B, read-out: affinity to intracellular AURKB
[17] = NanoBRET, HEK293T cells overexpressing the kinase, Table 2, read-out: AURKA IC50

| Structure (SMILES) | ΔTm at 10 µM ([1]; compound 10 µM, n = 3) [°C] | ΔTm at 10 µM ([2]; compound 10 µM, n = 3) [°C] | ΔTm at 10 µM ([3]; compound 10 µM, n = 3) [°C] | pIC50 [4, 15] | ΔTm at 10 µM ([5]; compound 10 µM, n = 3) [°C] | ΔTm at 10 µM ([6]; compound 10 µM, n = 3) [°C] | ΔTm at 10 µM ([8]; compound 10 µM, n = 3) [°C] | ΔTm at 10 µM ([9]; compound 10 µM, n = 3) [°C] | ΔTm at 10 µM ([10]; compound 10 µM, n = 3) [°C] | ΔTm at 10 µM ([11]; compound 10 µM, n = 3) [°C] | ΔTm at 10 µM ([12]; compound 10 µM, n = 3) [°C] | ΔTm at 10 µM ([13]; compound 10 µM, n = 3) [°C] | ΔTm at 10 µM ([14]; compound 10 µM, n = 3) [°C] | pIC50 [4, 16] | pIC50 [7, 17] | other results |
| --- | --- | --- | --- | --- | --- | --- | --- | --- | --- | --- | --- | --- | --- | --- | --- | --- |
| CCN1CCN(C(=O)Cc2ccc(Nc3ncc(F)c(Nc4ccc(C(=O)Nc5ccccc5Cl)cc4)n3)cc2)CC1 [Aurora-A inhibitor I, reference compound] |  |  |  |  |  |  |  |  |  |  |  |  |  |  |  | ΔTm at 10 µM [1]: 0.8 °C; ΔTm at 10 µM [2]: 3.1 °C; ΔTm at 10 µM [3]: 1.1 °C; pIC50 [4]: < 4.30; ΔTm at 10 µM [5]: 1.4 °C; ΔTm at 10 µM [6]: 3.7 °C; pIC50 [7]: 6.74; ΔTm at 10 µM [8]: 0.7 °C; ΔTm at 10 µM [9]: 1.4 °C; ΔTm at 10 µM [10]: 0.2 °C; ΔTm at 10 µM [11]: 2.8 °C; ΔTm at 10 µM [12]: 1.7 °C; ΔTm at 10 µM [13]: 0.2 °C; ΔTm at 10 µM [14]: 1.1 °C |
| O=C(Cc1ccc(Nc2ncc(F)c(Nc3ccc(C(=O)Nc4ccccc4Cl)cc3)n2)cc1)NCCN1CCOCC1 [ERJ2-04] | 0.3 | 2 | 0.4 | < 4.30 | 0.3 | 3.2 | 0.3 | 0.7 | 0.2 | 2.4 | 0.9 | -0.1 | 1.3 |  |  | pIC50 ([7]; NanoBRET, n = 2, mean, Figure 6B, read-out: affinity to intracellular AURKA): 6.25 |
| NC(=O)Cc1ccc(Nc2ncc(F)c(Nc3ccc(C(=O)Nc4ccccc4Cl)cc3)n2)cc1 [ERJ2-06] | 0.3 | 3.1 | 1.2 |  | 0.8 | 3.7 | 0.9 | 4.1 | 0 | 4.8 | 1.3 | 0.1 | 1.6 | 4.87 | 6.78 |  |
| CCN1CCN(C(=O)Cc2ccc(Nc3ncc(F)c(Nc4ccc(C(=O)Nc5ccccc5)cc4)n3)cc2)CC1 [ERJ2-11] | 1.1 | 3.6 | 1.2 |  | 1.8 | 3.8 | 0.8 | 2.6 | 0.2 | 3.5 | 1.7 | 0.1 | 1.1 | 4.37 | 6.12 |  |
| CCN1CCN(C(=O)Cc2ccc(Nc3ncc(F)c(Nc4ccc(C(=O)O)cc4)n3)cc2)CC1 [ERJ2-12] | 0.1 | 1 | 0.2 | < 4.30 | 1.6 | 4.2 | 0.2 | 0.4 | 0.2 | 0.7 | 0.3 | -0.1 | 1.3 |  | < 4.30 |  |
